Assay results from article PMC7504435, “Combined Protein- and Ligand-Observed NMR Workflow to Screen Fragment Cocktails against Multiple Proteins: A Case Study Using Bromodomains” (Molecules, 2020).
Read-outs that look alike come from different tables or passages of the source.

Experiments:
PfGCN5 bromodomain [1] = biological target: T1, PfGCN5 bromodomain (Plasmodium falciparum, UniProt Q8IB67); assay: biochemical; format: binding; settings: for Kd: PrOF NMR titration, for 9 average of W1454 and W1379, NS = non-saturating, read-out: PfGCN5 Kd; for Initial Mixture PfGCN5 PrOF NMR Δδ: hit mixture containing the fragment, 400 µM each fragment
Protocol: (§1) The screening workflow consists of two dependent steps: 1) a PrOF NMR screen of the 5FW-labeled proteins and a cocktail of 4–5 fragments in a single NMR tube; 2) a ^1H CPMG NMR binding assay to deconvolute the hit mixtures for each protein (Figure 1). In the first step, a dual-protein PrOF NMR spectrum was obtained in which 5FW-PfGCN5, 5FW-BPTF (~ 50 µM each) and mixtures of fragments (400 µM individual fragment) were present in the same NMR tube. […] Chemical shift perturbations indicating a ligand binding event were based on a prior cutoff of Δδ ≥ 0.030 ppm as the definition for a hit mixture. This cutoff was based on a statistical analysis of chemical shift perturbations from a prior BRD4 D1 fragment screen and are described further in the experimental section and in Table S2.
(§2) PrOF NMR. PrOF NMR spectra were obtained on a Bruker Avance III HD 500 with the 5 mm Prodigy TCI inverse cryoprobe (^19F S:N 2000:1). […] The DMSO concentration for all experiments was kept constant at 1%. […] For the PrOF NMR screen, 5FW-BPTF and 5FW-PfGCN5 (35–40 µM in 50 mM phosphate, 100 mM NaCl, pH 7.4) were tested with mixtures of 4–5 fragments, where each individual fragment was 400 µM. […] A 10 Hz line broadening was applied. Titrations were fit to Equation (2), where p is the protein concentration and L is the ligand concentration. (2) Δδ=Δδmax × (Kd+P+L ) − (((Kd + P + L )^2) − 4PL)/2P
(§3) A PrOF NMR binding event is characterized as a change in chemical shift (Δδ) from the protein-only spectrum to the protein + fragment mixture spectrum. We used a prior cutoff of Δδ ≥ 0.030 ppm as the definition of a hit mixture, based on a statistical analysis of chemical shift perturbations from a prior BRD4 D1 fragment screen.

PfGCN5 bromodomain [2] = biological target: T1, PfGCN5 bromodomain; assay: 1H CPMG NMR deconvolution of hit mixtures, PfGCN5; format: binding; settings: 10 µM protein, 100 µM ligand; for 1H CPMG NMR % Drop in Resonance Intensity PfGCN5: for 9 from competition experiments (footnote a)
Protocol: (§4) The second step is a ^1H CPMG NMR deconvolution of the hit mixtures using the non-fluorine-labeled bromodomains. ^1H CPMG NMR employs a T2 filter to take advantage of the difference in transverse relaxation time between protein and small molecules to filter out the bound-state ligand(s). Unlike the PrOF NMR assay, a single protein is assayed in each experiment. A binding event is characterized by a decrease in ligand resonance intensity from the ligand alone spectrum to the ligand + protein spectrum. A hit is defined as a decrease in resonance intensity ≥ 20%. The ^1H CPMG NMR assay can be tuned by changing the protein or ligand concentration, filter length (Figure 1), or hit criteria depending on how stringent the desired hit rate is. The number of ^1H CPMG NMR deconvolution experiments is directly informed from the first step. If a mixture from the first step was only a hit for one protein, a single ^1H CPMG NMR deconvolution experiment is needed. If a mixture from the first step was a hit for both proteins, two separate ^1H CPMG NMR deconvolutions experiments are needed to determine the fragments that bind to each protein.
(§5) ^1H CPMG NMR. ^1H CPMG NMR screen data were acquired on Bruker Avance III HD 500 with the 5 mm Prodigy TCI cryoprobe inverse cryoprobe (^1H 2500:1 S/N). Competition ^1H CPMG NMR data were acquired on Bruker 700 MHz Avance with a CryoProbe 5 mm TXI (^1H S:N with H2O suppression (2mM sucrose) - 900:1) and excitation sculpting water suppression. Proteins were present at 10 µM in 50 mM phosphate, 100 mM NaCl, pH 7.4 in 100% D2O. In separate NMR tubes, a ^1H CPMG NMR pulse was applied to a 1) mixture of ligands (individual ligands present at 100 µM for the screen and 50 µM for competition experiments) and 2) ligands + protein. […] For the competition experiments, τ was increased to 4.0 ms.

BRD4 D1 = settings: cited from earlier work
BPTF bromodomain [3] = biological target: T2, BPTF bromodomain (Homo sapiens, UniProt Q12830); assay: PrOF NMR (dual-protein screen of mixtures, titrations) with 5FW-BPTF; format: binding; parameters: against the bromodomains of BPTF and Plasmodium falciparum GCN5 (PfGCN5); his6; made in house; settings: for Initial Mixture BPTF PrOF NMR Δδ: hit mixture containing the fragment, 400 µM each fragment
Protocol: as §1, §2, §3

BPTF bromodomain [4] = biological target: T2, BPTF bromodomain; assay: 1H CPMG NMR deconvolution of hit mixtures, BPTF; format: binding; parameters: deconvolution of the hit mixtures using the non-fluorine-labeled bromodomains; made in house; host or cells: E. coli BL21(DE3); settings: 10 µM protein, 100 µM ligand; for 1H CPMG NMR % Drop in Resonance Intensity BPTF: for 9 from competition experiments (footnote a)
Protocol: as §4, §5

PfGCN5 bromodomain [5] = biological target: T1, PfGCN5 bromodomain; assay: Competition 1H CPMG NMR with PfGCN5; format: binding; settings: competitor at or above the protein concentration
Description: The competition ^1H CPMG NMR and PrOF NMR assays were employed to further probe the binding mode of 9 to PfGCN5. […] At high concentrations, at or above the protein concentration, the competition maxed out at ~ 50% (Figure 2, Figure S10, Table S5). Conversely, TP-238 was able to compete 9 off from BPTF at low concentrations.
^1H CPMG NMR. ^1H CPMG NMR screen data were acquired on Bruker Avance III HD 500 with the 5 mm Prodigy TCI cryoprobe inverse cryoprobe (^1H 2500:1 S/N). Competition ^1H CPMG NMR data were acquired on Bruker 700 MHz Avance with a CryoProbe 5 mm TXI (^1H S:N with H2O suppression (2mM sucrose) - 900:1) and excitation sculpting water suppression. Proteins were present at 10 µM in 50 mM phosphate, 100 mM NaCl, pH 7.4 in 100% D2O. In separate NMR tubes, a ^1H CPMG NMR pulse was applied to a 1) mixture of ligands (individual ligands present at 100 µM for the screen and 50 µM for competition experiments) and 2) ligands + protein. For competition experiments, the ligands were used individually, and the competitor ligands were spiked into tube 2. ^1H CPMG NMR parameters for the screen: NS = 128, acquisition time = 2 s, τ = 2.5 ms, and L = 120. For the competition experiments, τ was increased to 4.0 ms.

[6] = PrOF NMR titration, NS = non-saturating, NB = no binding
[7] = previous screen, NC = noncompetitive with JQ1 in 1H CPMG competition

T1 sequence (Q8IB67 entry or part of it): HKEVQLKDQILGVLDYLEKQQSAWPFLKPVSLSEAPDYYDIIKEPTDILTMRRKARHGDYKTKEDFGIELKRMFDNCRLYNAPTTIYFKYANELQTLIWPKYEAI

## N#Cc1cccc(C(=O)NC2CCC3OCCOC3C2)c1 (stereo not drawn) [Fragment 1]
PfGCN5 bromodomain [1]
  Kd: > 1000 µM
  Initial Mixture PfGCN5 PrOF NMR Δδ: ++ (++ = 0.050 < Δδ < 0.099)
PfGCN5 bromodomain [2]
  PfGCN5 CPMG % decrease: 100%
  1H CPMG NMR % Drop in Resonance Intensity PfGCN5: +++++ (+++++ = 100%)
BRD4 D1; data from previous screen
  Kd: > 400 µM
BPTF bromodomain [3]
  Initial Mixture BPTF PrOF NMR Δδ: - (For PrOF NMR = Δδ < 0.029 ppm)

## COC(=O)N1CCC(CNC(=O)c2ccco2)CC1 [Fragment 2]
PfGCN5 bromodomain [1]
  Kd: 360 µM
  Initial Mixture PfGCN5 PrOF NMR Δδ: +++ (+++ = 0.1 < Δδ < 0.199)
PfGCN5 bromodomain [2]
  PfGCN5 CPMG % decrease: 100%
  1H CPMG NMR % Drop in Resonance Intensity PfGCN5: +++++ (+++++ = 100%)
BRD4 D1; data from previous screen
  Kd: 450 µM
BPTF bromodomain [3]
  Initial Mixture BPTF PrOF NMR Δδ: ++ (++ = 0.050 < Δδ < 0.099)

## CCC(=O)NCc1nccc(N(C)C)n1 [Fragment 3]
PfGCN5 bromodomain [1]
  Kd: > 1000 µM
  Initial Mixture PfGCN5 PrOF NMR Δδ: ++++ (++++ = Δδ > 0.2)
PfGCN5 bromodomain [2]
  PfGCN5 CPMG % decrease: 82%
  1H CPMG NMR % Drop in Resonance Intensity PfGCN5: ++++ (++++ = 80–99.9%)
BRD4 D1; data from previous screen
  Kd: > 400 µM
BPTF bromodomain [3]
  Initial Mixture BPTF PrOF NMR Δδ: - (For PrOF NMR = Δδ < 0.029 ppm)

## Cc1ccc2c(C#N)c(N)sc2c1 [Fragment 4]
PfGCN5 bromodomain [1]
  Initial Mixture PfGCN5 PrOF NMR Δδ: - (For PrOF NMR = Δδ < 0.029 ppm)
BRD4 D1; data from previous screen
  Kd: > 400 µM
BPTF bromodomain [3]; [6]
  BPTF Kd: no binding
  Kd: > 1000 µM
BPTF bromodomain [3]
  Initial Mixture BPTF PrOF NMR Δδ: + (+ = 0.030 < Δδ < 0.049)
BPTF bromodomain [4]
  BPTF CPMG % decrease: 100%
  1H CPMG NMR % Drop in Resonance Intensity BPTF: +++++ (+++++ = 100%)

## CC(C)CNc1ncc([N+](=O)[O-])c(N)n1 [Fragment 5]
PfGCN5 bromodomain [1]
  Initial Mixture PfGCN5 PrOF NMR Δδ: - (For PrOF NMR = Δδ < 0.029 ppm)
BRD4 D1; data from previous screen
  Kd: > 400 µM
BPTF bromodomain [3]; [6]
  Kd: > 1000 µM
BPTF bromodomain [3]
  Initial Mixture BPTF PrOF NMR Δδ: ++ (++ = 0.050 < Δδ < 0.099)
BPTF bromodomain [4]
  BPTF CPMG % decrease: 65%
  1H CPMG NMR % Drop in Resonance Intensity BPTF: +++ (+++60–80%)

## Cc1cccc(NC(=O)C2CCN(S(C)(=O)=O)CC2)c1 [Fragment 6]
PfGCN5 bromodomain [1]
  Initial Mixture PfGCN5 PrOF NMR Δδ: - (For PrOF NMR = Δδ < 0.029 ppm)
PfGCN5 bromodomain [1]; ratio of Kd values
  selectivity, binds PfGCN5 over BPTF: > 6 fold
BRD4 D1; Y/N, previous screen
  Bind BRD4?: not bind
BRD4 D1; data from previous screen
  Kd: > 400 µM
BPTF bromodomain [3]; [6]
  Kd: 540 µM
BPTF bromodomain [3]
  Initial Mixture BPTF PrOF NMR Δδ: + (+ = 0.030 < Δδ < 0.049)
BPTF bromodomain [4]
  BPTF CPMG % decrease: 25%
  1H CPMG NMR % Drop in Resonance Intensity BPTF: + (+ = 20–39.9%)

## CS(=O)(=O)N1CCC2(CC1)OC(=O)c1ccccc12 [Fragment 7]
PfGCN5 bromodomain [1]
  Kd: 150 µM
  Initial Mixture PfGCN5 PrOF NMR Δδ: +++ (+++ = 0.1 < Δδ < 0.199)
PfGCN5 bromodomain [2]
  PfGCN5 CPMG % decrease: 100%
  1H CPMG NMR % Drop in Resonance Intensity PfGCN5: +++++ (+++++ = 100%)
BRD4 D1; data from previous screen
  Kd: > 400 µM
BPTF bromodomain [3]; PrOF NMR titration
  Kd: > 1000 µM
BPTF bromodomain [3]
  Initial Mixture BPTF PrOF NMR Δδ: +++ (+++ = 0.1 < Δδ < 0.199)
BPTF bromodomain [4]
  BPTF CPMG % decrease: 49%
  1H CPMG NMR % Drop in Resonance Intensity BPTF: ++ (++ = 40–59.9%)

## CCOC(=O)c1c(NC(C)=O)sc(C)c1C [Fragment F0777-0038]
PfGCN5 bromodomain [2]
  PfGCN5 CPMG % decrease: 100%
BRD4 D1; [7]
  Kd: 820 µM
BPTF bromodomain [4]
  BPTF CPMG % decrease: 100%

## CCOC(=O)c1sc(NC(=O)C2CCOC2)cc1C (stereo not drawn) [Fragment F0882-2747]
PfGCN5 bromodomain [2]
  PfGCN5 CPMG % decrease: 63%
BRD4 D1; [7]
  Kd: 660 µM
BPTF bromodomain [4]
  BPTF CPMG % decrease: 54%

## CCCC(=O)Nc1cc2c3c(c1)CC(=O)N3CCC2 [Fragment F2666-0003]
PfGCN5 bromodomain [2]
  PfGCN5 CPMG % decrease: 100%
BRD4 D1; [7]
  Kd: 840 µM
BPTF bromodomain [4]
  BPTF CPMG % decrease: 54%

## CCCCNc1nc2c([nH]1)c(=O)n(C)c(=O)n2C [Fragment F3176-0122]
PfGCN5 bromodomain [2]
  PfGCN5 CPMG % decrease: 77%
BRD4 D1; [7]
  Kd: 2500 µM
BPTF bromodomain [4]
  BPTF CPMG % decrease: 80%

## Cc1cc(-c2nnc(NC(=O)C3CC3)o2)nn1C [Fragment F5036-0073]
BRD4 D1; [7]
  Kd: 1200 µM
BPTF bromodomain [4]
  BPTF CPMG % decrease: 55%

## CN1C[C@H](Nc2cnn(C)c(=O)c2Br)C[C@H](c2ccccc2)C1 [GSK4027, reference compound]
PfGCN5 bromodomain [1]
  PrOF NMR titration with 5FW-PfGCN5, result in words: binds PfGCN5 strongly
PfGCN5 bromodomain [5]
  competition maximum in 1H CPMG NMR competition with 9: ~ 50%

## Cc1nnc2c3ccccc3c(N[C@@H](C)[C@H](c3ccccc3)N(C)C)nn12 [L-Moses, reference compound]
PfGCN5 bromodomain [5]
  competition maximum in 1H CPMG NMR competition with 9: ~ 50%

## CCOC(=O)Nc1cc(-c2ccc(C)c(NS(C)(=O)=O)c2)nn2c(C)nnc12 [bromosporine, reference compound]
PfGCN5 bromodomain [1]
  PrOF NMR titration with 5FW-PfGCN5, result in words: slow exchange kinetics
